{
  "source": "patent US4439603A",
  "about": "“Anthracycline derivatives of β-rhodomycinone glycosides” (Sanraku-Ocean Co., Ltd., priority 1981, dated 1984)",
  "key": {"Solubility": {"test": "Solubility", "format": "physicochemical", "experimental": "Solubilities of the compounds of the present invention, β-rhodomycinone-RDA, -RDRs, and -RD are similar. […] The color of the solutions, when they are dissolved, is red or reddish yellow, which is changed to violet in alkaline solution."}, "[1]": {"tested_on": "L1210 cells, RNA synthesis", "test": "Inhibition of RNA synthesis (14C-uridine incorporation) in L1210 cells", "format": "cell-based, mouse", "conditions": "RPMI 1640 with 10% calf serum, pulse-labeling 60 minutes at 37° C.; for IC50: Mus musculus, L1210, 1 h, read-out: 50% Inhibitory concentration, 14C-Uridine (Inhibition of RNA synthesis)", "experimental": "(§1) Independently of the above-mentioned experiment, the compounds of the present invention were added to an about 5×10^5 cells/ml L1210 cell suspension in RPMI 1640 medium containing 10% calf serum at a concentration of 0.02-2.5 μg/ml. After 15 minutes, ^14 -C-uridine (0.05 μCi/ml) or ^14 C-thymidine (0.05 μCi/ml) was added to the suspension and pulse-labeling was carried out at 37° C. for 60 minutes. The reaction was stopped by addition of a cold 10% trichloroacetic acid solution and an acid-insoluble fraction was precipitated. The precipitate was washed with a cold 5% trichloroacetic acid and the radioactivity was measured."}, "L1210 leukemia cells": {"tested_on": "L1210 leukemia cells", "test": "Growth inhibition of cultured mouse leukemia L1210 cells (48 hours, viable cell count)", "format": "cell-based", "conditions": "for IC50: Mus musculus, L1210, 48 h, read-out: 50% Inhibitory concentration, Growth inhibition after 48 hours; for antitumor effect on L1210 leukemia cells: result in words", "experimental": "The L1210 cells were cultivated at 37° C. overnight and transferred to RPMI (Roswell Park Memorial Institute) 1640 medium containing 20% calf serum at their exponential growth phase so as to give a cell concentration of 4×10^4 cells/ml. The compounds of the present invention were added to the medium at a concentration of 0.01-0.25 μg/ml. Incubation was performed in a CO2 -incubator at 37° C. for 2 days and then the number of viable cells was counted.\nas §1"}, "[2]": {"tested_on": "L1210 cells, DNA synthesis", "test": "Inhibition of DNA synthesis (14C-thymidine incorporation) in L1210 cells", "format": "cell-based, mouse", "conditions": "RPMI 1640 with 10% calf serum, pulse-labeling 60 minutes at 37° C.; for IC50: Mus musculus, L1210, 1 h, read-out: 50% Inhibitory concentration, 14C-Thymidine (Inhibition of DNA synthesis)", "experimental": "as §1"}, "[3]": {"test": "Acute toxicity in mice upon a single intraabdominal injection", "format": "in vivo", "conditions": "mouse, in vivo, ip"}, "mice": {"tested_on": "mice", "test": "Acute toxicity in mice upon a single intraabdominal injection", "format": "in vivo"}, "[4]": {"conditions": "in acidic water, methanol, ethanol, n-butanol, acetone, ethyl acetate, chloroform, benzene, toluene, dimethylsulfoxide and methyl cellosolve"}, "[5]": {"conditions": "L1210 cells, RPMI 1640 with 20% calf serum, 37° C., 48 hours"}},
  "data": [
    {"smiles": "CCC1(O)CC(OC2CC(N(C)C)C(OC3CC(O)C(O)C(C)O3)C(C)O2)c2c(O)c3c(c(O)c2C1O)C(=O)c1cccc(O)c1C3=O", "note": "(stereo not drawn) [β-Rhodomycinone-RD]", "values": [
      {"measurement": "Solubility", "setting": "Solubility; [4]", "result": "soluble"},
      {"measurement": "Solubility", "setting": "Solubility; in water, ether and n-hexane", "result": "slightly soluble"},
      {"measurement": "IC50", "setting": "[1]", "result": 0.13, "unit": "µg/mL"},
      {"measurement": "IC50", "setting": "L1210 leukemia cells; [5]", "result": 0.01, "unit": "µg/mL"},
      {"measurement": "antitumor effect on L1210 leukemia cells", "setting": "L1210 leukemia cells", "result": "have an antitumor effect on L1210 leukemia cells"},
      {"measurement": "IC50", "setting": "[2]", "result": 0.36, "unit": "µg/mL"},
      {"measurement": "LD50", "setting": "[3]", "result": 25.5, "unit": "mg/kg"}
    ]},
    {"smiles": "CCC1(O)CC(OC2CC(N(C)C)C(OC3CC(O)C(OC4CCC(O)C(C)O4)C(C)O3)C(C)O2)c2c(O)c3c(c(O)c2C1O)C(=O)c1cccc(O)c1C3=O", "note": "(stereo not drawn) [β-Rhodomycinone-RDRs]", "values": [
      {"measurement": "Solubility", "setting": "Solubility; [4]", "result": "soluble"},
      {"measurement": "Solubility", "setting": "Solubility; in water, ether and n-hexane", "result": "slightly soluble"},
      {"measurement": "50% Inhibitory concentration, 14C-Uridine (Inhibition of RNA synthesis)", "setting": "[1]", "result": 0.085, "unit": "µg/mL"},
      {"measurement": "50% Inhibitory concentration, Growth inhibition after 48 hours", "setting": "L1210 leukemia cells; [5]", "result": 0.016, "unit": "µg/mL"},
      {"measurement": "antitumor effect on L1210 leukemia cells", "setting": "L1210 leukemia cells", "result": "have an antitumor effect on L1210 leukemia cells"},
      {"measurement": "50% Inhibitory concentration, 14C-Thymidine (Inhibition of DNA synthesis)", "setting": "[2]", "result": 0.54, "unit": "µg/mL"},
      {"measurement": "acute toxicity (LD50 value)", "setting": "mice", "result": 35.3, "unit": "mg/kg"}
    ]},
    {"smiles": "CCC1(O)CC(OC2CC(N(C)C)C(OC3CC(O)C(OC4CCC(=O)C(C)O4)C(C)O3)C(C)O2)c2c(O)c3c(c(O)c2C1O)C(=O)c1cccc(O)c1C3=O", "note": "(stereo not drawn) [β-Rhodomycinone-RDC, reference compound]", "values": [
      {"measurement": "IC50", "setting": "[1]", "result": 0.07, "unit": "µg/mL"},
      {"measurement": "IC50", "setting": "L1210 leukemia cells; [5]", "result": 0.01, "unit": "µg/mL"},
      {"measurement": "IC50", "setting": "[2]", "result": 0.45, "unit": "µg/mL"}
    ]},
    {"smiles": "CCC1(O)CC(OC2CC(N(C)C)C(OC3CC(O)C(OC4CCC(O)C(C)O4)C(C)O3)C(C)O2)c2c(O)c3c(c(O)c2C1O)C(=O)c1cccc(O)c1C3=O", "note": "(stereo not drawn) [β-Rhodomycinone-RDA]", "values": [
      {"measurement": "Solubility", "setting": "Solubility; [4]", "result": "soluble"},
      {"measurement": "Solubility", "setting": "Solubility; in water, ether and n-hexane", "result": "slightly soluble"},
      {"measurement": "IC50", "setting": "[1]", "result": 0.095, "unit": "µg/mL"},
      {"measurement": "IC50", "setting": "L1210 leukemia cells; [5]", "result": 0.028, "unit": "µg/mL"},
      {"measurement": "antitumor effect on L1210 leukemia cells", "setting": "L1210 leukemia cells", "result": "have an antitumor effect on L1210 leukemia cells"},
      {"measurement": "IC50", "setting": "[2]", "result": 0.52, "unit": "µg/mL"},
      {"measurement": "LD50", "setting": "[3]", "result": 40.6, "unit": "mg/kg"}
    ]}
  ]
}
